These results are taken from US20230293488A1, “COMPOSITIONS AND METHODS OF USE OF ANTIBACTERIAL DRUG COMBINATIONS” (priority 2015, published 2023).

The target of data set [1] is allosteric site of PBP2a (Staphylococcus aureus, UniProt P07944). Kind of data set: Binding to the allosteric site of PBP2a.
For data set [2] the following is noted: in vivo, iv; cited from earlier work.
In data set [3] the test system is MRSA N315. Kind of data set: Neutropenic mouse peritonitis model of MRSA infection. The class given is in vivo, mice. As to conditions: for Result (Alive/Dead) / Result (survivors per group) / Bacterial detection results: Plated: 67 mg/kg (of each) every 8 hrs SC; for Result (Alive/Dead) / Result (survivors per group): 6 doses; for Result (Alive/Dead) / Bacterial detection results: Plated: one line per mouse; for Result (survivors per group): six days post-infection; for Bacterial detection results: Plated: cheek bleed 11 h post-infection, ~100 uL blood plated, 67 mg/kg; for mice that succumbed to the infection: most within 48 h, 67 mg/kg (of each). The source says: In vivo mouse model of MRSA infection: Animals. Outbred ICR female mice (6-8 weeks old, 17-25 g body weight; Harlan Laboratories, Inc., Indianapolis, IN, USA) were used. Mice were given Teklad 2019 Extruded Rodent Diet (Harlan Laboratories, Inc., Indianapolis, IN, USA) and water ad libitum. Mice were maintained in polycarbonate shoebox cages containing corncob (The Andersons, Inc., Maumee, OH, USA) and Alpha-dri (Shepherd Specialty Papers, Inc., Richland, MI, USA) bedding under 12-h light/12-h dark cycle at 22±1° C. All procedures involving animals were approved by the University of Notre Dame Institutional Animal Care and Use Committee.
Neutropenic mouse peritonitis model of MRSA infection. Doses of cyclophosphamide (100 μl of 50 mg/ml in 0.9% saline corresponding to 200 mg/kg; Alfa Aesar, Ward Hill, MA, USA) were given intraperitoneally (IP) at 4 days and 1 day prior to infection. The S. strain N315 was streaked onto Brain-Heart Infusion (BHI; Becton Dickson and Company, Sparks, MD, USA) agar and grown overnight at 36° C. The MRSA N315 bacterial inoculum was adjusted to approximately 1×10^8 CFU/ml (corresponding to OD540=0.5), then diluted to give 2×10^7CFU/ml. A 10% porcine mucin (Sigma-Aldrich, St. Louis, MO, USA) suspension was prepared and adjusted to pH 7. Immediately prior to infection, the bacterial inocula were diluted 1:1 with 10% mucin to a final concentration of 1×10^7CFU/ml in 5% mucin. The mice were then infected IP with 0.5 ml of this inoculum. In vivo dosing of compounds in mice was compared with mean or range peak human plasma concentrations of studied β-lactams^44,46,47,62,63.
Antibiotic preparation. Meropenem was obtained from AK Scientific, Inc. (Union City, CA, USA), piperacillin and tazobactam were obtained from Sigma-Aldrich Co. (St. Louis, MO, USA). Linezolid (CAS 165800-03-3) was obtained from AmplaChem (Carmel, IN, USA). Antibiotics were dissolved at a concentration of 16.67 mg/ml in 30% DMSO/30% propylene glycol/40% water. Linezolid was used as positive control and was prepared at 7.5 mg/ml. Vehicle (30% DMSO/30% propylene glycol/40% water) was included as negative control. The dosing formulations were sterilized by passing through 0.2 μm filter prior to injection.
(§1) Bacterial isolation from blood. Blood samples were checked for bacterial growth by plating and liquid culture. Whole blood (100 μl, three samples per group) was spread onto Brain-Heart Infusion (BHI) agar plates and incubated at 36° C. overnight. Colonies were counted and three colonies were selected, grown overnight in liquid BHI culture at 36° C., then mixed 1:1 with 30% LB-glycerol and stored at −80° C. The remaining three blood samples of each group (50 μl) was added to 5 ml BHI broth and incubated overnight at 36° C. When growth was noted, cultures were mixed 1:1 with 30% LB-glycerol and stored at −80° C.
Statistical Analyses: Data for minimal inhibitory concentrations (MICs) are derived from triplicate measurements. Adaptation data are taken from two replicate experiments for each drug combination condition. Data for qRT-PCR expression profiling are derived from three replicate experiments taken from three biological replicates each, with standard error of measurement calculated. Mice were treated in groups of six, and growth determination of bacteria determined via plate and broth culture in triplicate. Fisher's Exact test with Bonferroni correction was used for 8 independent tests (comparing each treatment to 610 vehicle).

The test system of data set [4] is MRSA N315. The data set is described as follows: In vitro MICs and FICI for MRSA N315 after passage in vivo. The class given is cell-based, Staphylococcus aureus.
Source text: We tested MRSA N315 cultures from blood drawn from mice treated with meropenem, piperacillin, or vehicle for their in vitro MICs against ME/PI/TZ and its constituent single drugs to determine whether adaptation occurred during passage in vivo. All four tested isolates of MRSA N315 had identical MICs for the triple ME/PI/TZ and all constituent drugs, and thus identical synergy (Table 6B).
Microbiological Studies: MRSA N315 was a gift from Dr. Steven Gill, University of Rochester, Rochester, NY, USA. S. aureus ATCC 29213 was acquired from the American Type Culture Collection. De-identified clinical MRSA isolates were selected at random from the clinical isolate strain bank at Barnes-Jewish Hospital, St. Louis, MO, USA. Minimal inhibitory concentration (MIC) assays for inhibition of growth were performed following the recommendations of the Clinical and Laboratory Standards Institute (CLSI)^43. Briefly, 23 antibacterial compounds (Supplemental Table 1) were selected based on coverage of all major drug classes, including three compounds not classified as antibiotics for human use, but with known antibacterial properties. Compounds were dissolved in dimethyl sulfoxide (DMSO) to a stock concentration of 50 mg/ml. Exceptions: Sulfometuron at 20 mg/ml in DMSO; Tobramycin, D-cycloserine, and colistin at 50 mg/ml in H2O and filtered at 2 μm. The 23 compounds were formulated into all 253 possible unique pairwise combinations at fixed ratios and at 100× concentrations in solvent. To increase the range of concentrations assayed for possible synergistic or antagonistic drug interactions (>2,000-fold), the drug stocks were arrayed into threefold dilution series down eight rows in 96-well Costar master drug plates, using a BioMek FX robotic liquid handler (Beckman Coulter, Inc.). Drugs were then mixed 1:100 into 96-well plates containing 200 μl/well of cation-adjusted Mueller-Hinton broth (CAMHB). All drug susceptibility assay wells were inoculated with ˜1 μl of mid-log phase bacterial culture at 0.5 McFarland standard (˜2×10^8 CFU/ml) and grown at 37° C. for 24 h. Endpoint growth at 37° C. after 24 h was determined by optical density at 600 nm ≥0.1 using a Synergy H1 reader (BioTek, Inc.).
as §1

Setting [5] is: colonies from mice given Vehicle.

Several values for one entry are separate records, joined by “and”; a condition that tells them apart may be missing. Equal values may be shown once. Entries after “also recorded” stand apart in the source; their conditions may differ. Read-outs that look alike come from different tables or passages of the source.

Sequence of allosteric site of PBP2a (P07944 whole entry): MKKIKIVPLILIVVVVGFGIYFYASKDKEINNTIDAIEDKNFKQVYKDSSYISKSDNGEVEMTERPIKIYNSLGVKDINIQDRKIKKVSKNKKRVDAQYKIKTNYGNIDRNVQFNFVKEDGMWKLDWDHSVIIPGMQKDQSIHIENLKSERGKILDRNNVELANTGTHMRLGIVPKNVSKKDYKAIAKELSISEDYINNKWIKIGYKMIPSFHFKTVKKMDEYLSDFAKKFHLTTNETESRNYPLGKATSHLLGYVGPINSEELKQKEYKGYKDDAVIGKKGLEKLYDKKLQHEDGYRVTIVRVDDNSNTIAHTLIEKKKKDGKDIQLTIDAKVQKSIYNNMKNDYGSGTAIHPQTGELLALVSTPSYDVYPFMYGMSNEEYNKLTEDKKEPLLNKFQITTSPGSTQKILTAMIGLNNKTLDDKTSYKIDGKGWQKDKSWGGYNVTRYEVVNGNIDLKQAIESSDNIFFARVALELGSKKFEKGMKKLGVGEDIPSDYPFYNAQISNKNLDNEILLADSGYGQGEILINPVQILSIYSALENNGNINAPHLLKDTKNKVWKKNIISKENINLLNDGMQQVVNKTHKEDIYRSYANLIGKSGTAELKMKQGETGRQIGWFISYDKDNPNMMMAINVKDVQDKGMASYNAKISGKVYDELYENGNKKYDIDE

In the case of `C[C@@H](O)[C@H]1C(=O)N2C(C(=O)O)=C(S[C@@H]3CN[C@H](C(=O)N(C)C)C3)[C@H](C)[C@H]12` [Meropenem], the Kd in data set [1] (read-out: dissociation constant (Kd)) was 270 ± 80 µM; in data set [1] (read-out: dissociation constant (Kd), equivalent (converted)) it was 271 µM. For the same compound, the “mean peak plasma concentration” value in data set [2] was 112 µg/mL. The “Result (Alive/Dead)” value in data set [3] was “Alive (4×) and Dead (2×)”. Also, in data set [3], the “Result (survivors per group)” value is 4/6. The “Bacterial detection results: Plated” value in data set [3] is “Plated: 11 colonies; also recorded: Plated: 3 colonies”. The “mice that succumbed to the infection” value in data set [3] was “several mice”. Also, the minimum inhibitory concentration (MIC) in data set [4] (Staphylococcus aureus, MRSA) amounted to 33.3 µg/mL; in data set [4] (Wild-type N315), 33.3 µg/mL; in data set [4] (colonies from mice given PI) it was 33.3 µg/mL; in data set [4] (setting [5]) it was 33.3 µg/mL.

In the case of `CCN1CCN(C(=O)N[C@@H](C(=O)N[C@@H]2C(=O)N3[C@@H]2SC(C)(C)[C@@H]3C(=O)O)c2ccccc2)C(=O)C1=O` [Piperacillin], in data set [3], the “Result (Alive/Dead)” value is listed as “Dead”, the “Result (survivors per group)” value is on record as 0/6, the “Bacterial detection results: Plated” value was “Plated: 40 colonies” and the “mice that succumbed to the infection” value is given as “all mice”. Besides, the MIC in data set [4] (Staphylococcus aureus, MRSA) worked out at 33.3 µg/mL. In addition, in data set [4] (Wild-type N315), the minimal inhibitory concentration (MIC) was determined as 33.3 µg/mL. Also, the MIC in data set [4] (colonies from mice given PI) is 33.3 µg/mL. Further, the MIC in data set [4] (setting [5]) stood at 33.3 µg/mL.
